Data published in US20190083455A1, “METHODS AND COMPOSITIONS FOR THE MODULATION OF BETA-ENDORPHIN LEVELS” (The General Hospital Corporation, priority 2014, published 2019).

Key:
[1] = test system: B16, B16-F0, Melan-a and PAM212 mouse cell lines; assay: RT-qPCR of POMC and Mitf after forskolin treatment, mouse cell lines; type: cell-based; conditions: 20 μM forskolin; mouse cells
Description: (§1) UACC62 and UAC257 human melanoma cells were obtained from NCI and grown in RPMI (Cellgro) medium supplemented with 10% fetal bovine serum and penicillin/streptomycin/L-glutamine. Malme-3M human melanoma and B16 mouse melanoma cell line were obtained from ATCC and grown in DEMEM (Cellgro) medium supplemented with 5% fetal bovine serum and 1% penicillin/streptomycin/L-glutamine. Melan-a cells were kindly provided by Dorothy C. Bennett and were grown in Ham's F10 medium supplemented with 10% fetal bovine serum and 1% penicillin/streptomycin/L-glutamine. The mouse keratinocyte cell line PAM212 was generously shared by Dr. Paolo Dotto (Massachusetts General Hospital and Harvard Medical School, Boston, Mass.) and grown in 10% fetal bovine serum and 1% penicillin/streptomycin/L-glutamine. Cells were grown to 70% confluence prior to use in experiments in humidified incubators supplemented with 5% CO2.
(§2) After forskolin (Sigma) treatment at 20 μM final concentration at the stated times, mRNA was isolated using RNeasy® plus minikits from Qiagen, and was subjected to KAPA SYBR® FAST One-Step qRT-PCR (Kapa Biosystems). For each reaction, 100 ng of RNA was subjected to the following steps: reverse transcription for 30 min at 48° C., inactivation for 10 min at 95° C., expansion for 40 cycles (15 sec at 95° C. and 30 sec at 60° C.). The results are the average of three independent experiments. […]

[2] = test system: Malme-3M, UAC257 and UACC62 human melanoma cell lines; assay: RT-qPCR of POMC after forskolin treatment, human melanoma cell lines; type: cell-based; conditions: 20 μM forskolin; human samples
Description: as §1, §2

β-endorphin = assay: Plasma β-endorphin after topical forskolin treatment; type: in vivo; conditions: male mice, non-K14-SCF vs K14-SCF/Mc1r^e/e
Description: Blood samples from mice were collected in EDTA microvotte tubes containing 0.6 UTI aprotinin (Sigma). Samples were spun at 3500 rpm at 4° C. for 20 min and the plasma (top layer) was isolated and transferred to a new tube and stored at −80° C. until β-endorphin measurement was performed. β-Endorphin was measured using a radioimmunoassay from Phoenix Pharmaceuticals, following the manufacturer's instructions.
All experiments were done in C57BL/6J (Jackson laboratory) mice. C57BL/6J Mc1r^e/e (described at Robbins L S, et al., Pigmentation phenotypes of variant extension locus alleles result from point mutations that alter MSH receptor function. Cell. 1993 Mar. 26; 72(6) 72, 827-834.) were crossed with K14-Scf transgenic mice as previously reported (Kunisada T, et. al., Development. 1998 August; 125(15):2915-23.). Mice were 8 weeks old at the start of each experiment.
A crude extract of Coleus forskohlii root preparation was used as a working source of forskolin (ATZ Natural, Edgewater, N.J.) for the topical treatment of this drug (Lin C B, et. al., Modulation of microphthalmia-associated transcription factor gene expression alters skin pigmentation. J Invest Dermatol 119, 1330-1340 (2002)). […] Samples were processed and β-endorphin was measured.

mice = assay: Conditioned place preference testing with i.v. β-endorphin; type: in vivo; conditions: i.v. tail vein
Description: To test whether it is plausible that skin-derived β-endorphin may cause central effects we decided to assess whether peripherally administered β-endorphin injected i.v. into the tail vein could cause conditioned place preference.

Row | Molecule | time of peak Mitf mRNA expression after treatment [1] | time of peak POMC mRNA expression after treatment [1] | time point of increase of POMC after treatment [2] | β-endorphin fold induction, comparison of genotypes (β-endorphin) | conditioned place preference (time spent in the white box) (mice)
1 | C=C[C@@]1(C)CC(=O)[C@]2(O)[C@@]3(C)[C@@H](O)CCC(C)(C)[C@@H]3[C@H](O)[C@H](OC(C)=O)[C@@]2(C)O1 [forskolin] | 2 h | 8 h | 2 to 4 h | higher fold induction in the non-K14-SCF mice compared to the K14-SCF/Mc1r^e/e | 
2 | β-endorphin (YGGFMTSEKSQTPLVTLFKNAIIKNAYKKGE; Beta-endorphin; UniProt P01189 237-267, looked up) [endogenous opioid peptide, administered i.v. through the tail vein] |  |  |  |  | spent more time in the white box after conditioning
